Marks after values point to notes of the source that are not given here.
Tests used:
Type in all cases: in vivo, mice
[1] = tested on: CTG-0157 primary NSCLC human TumorGraft; assay: NSCLC TumorGraft model CTG-0157; details: CTG-0157, 14 days, 10 mg/kg iv/q4dx3
Experimental: (§1) Methods (for the experiments shown in FIGS. 10 and 11) • Female immunocompromised nu/nu mice (Harlan) between 6-9 weeks of age were housed on irradiated papertwist-enriched ⅛″ corncob bedding (Sheperd) in individual HEPA ventilated cages (Innocage® IVC, Innovive USA) on a 12-hour light-dark cycle at 68-74° F. (20-23° C.) and 30-70% humidity. Animals were fed water ad libitum (reverse osmosis, 2 ppm Cl2) and an irradiated Test rodent diet (Teklad 2919) consisting of 19% protein, 9% fat, and 4% fiber. • Tumor Models: Champions TumorGraft models of NSCLC are owned by Champions Oncology. In this study, animals were implanted unilaterally on the right flank with tumor fragments harvested from host animals. […] Erlotinib (manufacturer: OSI Pharmaceuticals; National Drug Code: 50242-062-01; Lot #: US0002) was formulated using 100% PEG-400 as the vehicle according to manufacturer's specifications.
(§2) Efficacy measurements: Beginning Day 0, tumor dimensions were measured twice weekly by digital caliper (Fowler Ultra-Cal IV) and data including individual and mean estimated tumor volumes (Mean TV±SEM) were recorded for each group; tumor volume was calculated using the formula TV=width^2×length×0.52. At study completion, percent tumor growth inhibition (% TGI) values were calculated and reported for each treatment group (T) versus control (C) using initial (i) and final (f) tumor measurements by the formula: % TGI=1−Tf−Ti/Cf−C; single agent or combination therapies resulting in a TGI>50 at study completion are considered active in the tested model at the evaluated treatment regimen according to NCI guidelines. […] If the PR persisted until study completion, percent tumor regression (% TR) was determined using the formula: % TR=1−Tf/Ti×100; a mean value was calculated if multiple PR mice occurred in one group. […] Statistical differences in tumor volume were determined using a two-tailed One-Way Analysis of Variance (ANOVA) followed by the Dunett's multiple comparisons test comparing treated groups with control and combinations with standard agent alone when possible. […]

[2] = tested on: CTG-0165 erlotinib-insensitive primary NSCLC human TumorGraft; assay: NSCLC TumorGraft model CTG-0165; details: CTG-0165, 37 days, 10 mg/kg iv/q4dx3
Experimental: as §1
(§3) Efficacy measurements: Beginning Day 0, tumor dimensions were measured twice weekly by digital caliper (Fowler Ultra-Cal IV) and data including individual and mean estimated tumor volumes (Mean TV±SEM) were recorded for each group; tumor volume was calculated using the formula TV=width^2×length×0.52. At study completion, percent tumor growth inhibition (% TGI) values were calculated and reported for each treatment group (T) versus control (C) using initial (i) and final (f) tumor measurements by the formula: % TGI=1−Tf−Ti/Cf−C; single agent or combination therapies resulting in a TGI>50 at study completion are considered active in the tested model at the evaluated treatment regimen according to NCI guidelines. Individual mice reporting a tumor volume ≤50% of the Day 0 measurement for two consecutive measurements over a seven day period were considered partial responders (PR). If the PR persisted until study completion, percent tumor regression (% TR) was determined using the formula: % TR=1−Tf/Ti×100; a mean value was calculated if multiple PR mice occurred in one group. Individual mice lacking palpable tumors (<4×4 mm^2 for two consecutive measurements over a seven day period) were classified as complete responders (CR); a CR that persisted until study completion was considered a tumor-free survivor (TFS). TFS animals are excluded from efficacy calculations. Statistical differences in tumor volume were determined using a two-tailed One-Way Analysis of Variance (ANOVA) followed by the Dunett's multiple comparisons test comparing treated groups with control and combinations with standard agent alone when possible. All data collected in this study was managed electronically and stored on a redundant server system.

[3] = tested on: CTG-0159 primary NSCLC human TumorGraft; assay: NSCLC TumorGraft model CTG-0159; details: CTG-0159, 14 days, 10 mg/kg iv/q4dx3
Experimental: as §1, §2

[4] = tested on: CTG-0170 erlotinib-insensitive primary NSCLC human TumorGraft; assay: NSCLC TumorGraft model CTG-0170; details: CTG-0170, 10 days, 10 mg/kg iv/q4dx3
Experimental: as §1, §3

[5] = tested on: CTG-0192 erlotinib-sensitive NSCLC TumorGraft; assay: NSCLC TumorGraft model CTG-0192
Experimental: as §1, §3

SMILES | % Tumor Growth Inhibition [1] [%] | % Tumor Growth Inhibition [2] [%*] | % Tumor Growth Inhibition [3] [%*] | % Tumor Growth Inhibition [4] [%*] | % Tumor Growth Inhibition ([5]; CTG-0192, 32 days, 10 mg/kg iv/q4dx3) [%*] | day of acquired resistance ([5]; CTG-0192, 35 mg/kg, po, qd×34) [days] | tumor regrowth after discontinuation of dosing (day 34) ([5]; CTG-0192, 35 mg/kg, po, qd×34) | tumor response during dosing ([5]; CTG-0192, 35 mg/kg, po, qd×34)
CC(=O)O[C@H]1C(=O)[C@@]2(C)[C@H]([C@H](OC(=O)c3ccccc3)[C@]3(O)C[C@H](OC(=O)[C@H](O)[C@@H](NC(=O)c4ccccc4)c4ccccc4)C(C)=C1C3(C)C)[C@]1(OC(C)=O)CO[C@@H]1C[C@@H]2O [Paclitaxel, reference compound] | 41 | 56 | 25 | 77 | 105 |  |  | 
C#Cc1cccc(Nc2ncnc3cc(OCCOC)c(OCCOC)cc23)c1 [erlotinib, reference compound] |  |  |  |  |  | ~29 | rate of tumor regrowth was similar to control/vehicle | initial sensitivity followed by acquired erlotinib-resistance

— US10028956B2, “Methods of treating various cancers using an AXL/cMET inhibitor in combination with other agents” (Ignyta, Inc., priority 2013, dated 2018)
